Values of other authors as cited in patent US20140348811A1, “COMPOSITIONS COMPRISING SUGAR-CYSTEINE PRODUCTS” (MAX INTERNATIONAL, LLC, priority 2011, published 2014).

What was measured:
glutathione levels = conditions: mice, 8 mmol/kg i.p.
[1] = system: irradiation-induced bowel injury; conditions: mice, 1 g/kg
[2] = system: acetaminophen hepatic and renal toxicity; conditions: mice, 2 g/kg
[3] = system: mice exposed to cyclophosphamide; conditions: 8 mmol/kg
ATP levels = conditions: dogs subjected to ischemia, about 3 g/day for at least 5 days
[4] = administered directly to humans, wide dosage ranges
[5] = healthy humans, orally 8-10 g per day

Row | Compound | increased glutathione levels, heart (glutathione levels; heart) | increased glutathione levels, muscle tissue (glutathione levels; muscle tissue) | protection against irradiation-induced bowel injury [1] | protection against acetaminophen hepatic and renal toxicity [2] | delivery of protective amounts of cysteine [3] | ATP levels (ATP levels) | toxicity [4] | exercise capacity [5]
1 | O=C(O)[C@@H]1CSC(C(O)C(O)C(O)CO)N1 (stereo partly drawn) [RibCys, 2(R,S)-D-ribo-(1′,2′,3′,4′-tetrahydroxybutyl)thiazolidine-4(R)-carboxylic acid] | 1.5 times | 2.5 times | protect mice against irradiation-induced bowel injury | protect mice against acetaminophen hepatic and renal toxicity | deliver effective protective amounts of cysteine |  |  | 
2 | O=C[C@H](O)[C@H](O)[C@H](O)CO [ribose] |  |  |  |  |  | effectively restored and maintained ATP levels | essentially non-toxic | increase exercise capacity
